# From patent US11351173B2, “Substituted pyrrolo[1,2-a]pyrimidines and their use in the treatment of medical disorders” (Bial—R&D Investments, S.A., priority 2014, dated 2022)
# Columns and labels:
# [1] = Compound solubility in water; settings: water; for solubility: Compound Solubility in Water
# [2] = biological target: T1, glucocerebrosidase (Gcase) (Homo sapiens, UniProt P04062); experiment: Glucocerebrosidase (Gcase) activation assay, 4-methylumbelliferyl-beta-D-glucopyranoside substrate, fluorescence readout; format: biochemical; settings: for activation at 0.1 µM / Percent Gcase Activation, 0.1 μM Test Compound: test compound at 0.1 μM; for activation at 0.1 µM: read-out: Percent Gcase Activation, 0.1 μM Test Compound; for activation at 1 µM / Percent Gcase Activation, 1 μM Test Compound: test compound at 1.0 μM; for activation at 1 µM: read-out: Percent Gcase Activation, 1 μM Test Compound
# T1 construct: micellar solution containing 10 nM GCase and 100 nM saposin C
# T1 sequence (P04062 40-536): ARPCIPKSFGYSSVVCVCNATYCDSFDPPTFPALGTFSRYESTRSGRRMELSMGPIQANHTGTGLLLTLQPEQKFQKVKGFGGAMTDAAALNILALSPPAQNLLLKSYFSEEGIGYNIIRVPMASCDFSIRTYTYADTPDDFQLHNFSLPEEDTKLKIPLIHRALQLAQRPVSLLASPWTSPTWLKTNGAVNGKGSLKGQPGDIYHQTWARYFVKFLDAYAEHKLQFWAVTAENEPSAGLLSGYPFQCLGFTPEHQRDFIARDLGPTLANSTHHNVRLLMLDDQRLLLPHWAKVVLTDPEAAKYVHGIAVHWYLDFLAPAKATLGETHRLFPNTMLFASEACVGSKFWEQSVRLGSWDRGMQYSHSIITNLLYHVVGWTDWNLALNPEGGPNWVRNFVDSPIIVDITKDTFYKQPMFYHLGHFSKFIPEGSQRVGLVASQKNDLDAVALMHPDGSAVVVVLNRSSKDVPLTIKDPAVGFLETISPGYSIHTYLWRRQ
# Experimental: The ability of exemplary compounds to activate glucocerebrosidase (Gcase) was measured.
# A 484 μL aliquot of a 1.0 mg/mL solution of phosphatidylserine (PS) (Sigma P7769) in chloroform was evaporated under a stream of nitrogen for 1 hour. The lipid film was dissolved over 4 minutes of vigorous vortexing in 40 mL of 176 mM K2HPO4/50 mM citric acid (pH 4.7) containing 7.5 μL of triton X-100, resulting in a mixed micellar preparation with a composition of 0.32 mM triton and 0.37 mol % PS. 4-Methylumbelliferyl-beta-D-glucopyranoside (ACROS-337025000) was dissolved in the micellar solution to a final concentration of 2 mM for use as the reaction substrate.
# Test compounds were diluted to the desired concentrations with dimethylsulfoxide (DMSO) from 10 mM stocks, and 0.41 μL of the DMSO compound mixture was added to 100 μL of micellar solution containing 10 nM GCase and 100 nM saposin C (Enzo ALX-201-262-C050). Pre-incubation was allowed to occur for 30 minutes at room temperature, after which the reaction was initiated by combining 25 μL of substrate solution with 25 μL of compound/GCase/saposin mixture. The reaction proceeded for 15 minutes at room temperature and was stopped by adding 150 μL of 1M glycine, pH 12.5. The endpoint of the reaction was monitored by measuring fluorescence intensity (excitation: 365 nm; emission: 440 nm) on a SpectraMax i3 instrument (Molecular Devices). Test compounds were screened at 1.0 and 0.1 μM final concentration, and subsequent 8-point dose response curves were obtained using 3-fold dilutions from a maximum final concentration of 5 μM.
SMILES,solubility [1],activation at 0.1 µM [2],activation at 1 µM [2],"Percent Gcase Activation, 1 μM Test Compound [2]",solubility ([1]; in water),Compound Solubility in Water [1],"Percent Gcase Activation, 0.1 μM Test Compound [2]"
Cc1cc(O)n2ccc(C(=O)Nc3ccc(-c4cocn4)cc3)c2n1 [III-55],1.8 µg/mL,< 10%,< 30%,–,–,–,–
Cc1cc(C)n2ccc(C(=O)NC3CCC4(CCCO4)C3)c2n1 (stereo not drawn) [III-146],25.4 µg/mL,< 10%,< 30%,–,–,–,–
Cc1cc(C)n2ccc(C(=O)NC3CCCC4(CCCCO4)C3)c2n1 (stereo not drawn) [III-80],8.7 µg/mL,10 to 20%,–,+++ (Gcase activation greater than 60%),–,–,–
Cc1cc(C)n2ccc(C(=O)NC3CCC(c4ncco4)CC3)c2n1 (stereo not drawn) [III-245],–,< 10%,< 30%,–,27.7 µg/mL,–,–
Cc1cc(C)n2ccc(C(=O)Nc3ccc(OCCCCN)cc3)c2n1 [III-19],17.2 µg/mL,< 10%,< 30%,–,–,–,–
Cc1cc(C)n2ccc(C(=O)Nc3ccc4c(c3)CCC4)c2n1 [III-13],–,–,–,+++ (Gcase activation greater than 60%),–,0.06 µg/mL,*** (greater than 20% Gcase activation)
Cc1cc(C)n2ccc(C(=O)NC3CCC(C4CCCO4)CC3)c2n1 (stereo not drawn) [III-200],–,–,–,–,–,12.4 µg/mL,* (less than 10% Gcase activation)
CNCCCCOc1ccc(NC(=O)c2ccn3c(C)cc(C)nc23)cc1 [III-20],20.8 µg/mL,< 10%,< 30%,–,–,–,–
Cc1cc(C)n2ccc(C(=O)NC3CCCCC34CCCCO4)c2n1 (stereo not drawn) [III-152],6.7 µg/mL,10 to 20%,> 60%,–,–,–,–
Cc1cc(C)n2ccc(C(=O)N[C@H]3CC[C@H](OC4CCC4)CC3)c2n1 [III-101],8.5 µg/mL,> 20%,> 60%,–,–,–,–
Cc1cc(C)n2ccc(C(=O)NC3CCC4(CCCCO4)C3)c2n1 (stereo not drawn) [III-85],–,–,–,–,–,21.3 µg/mL,* (less than 10% Gcase activation)
Cc1cc(C)n2ccc(C(=O)Nc3ccc(N4CCCCC4)cc3)c2n1 [III-17],< 0.1 µg/mL,< 10%,30 to 60%,–,–,–,–
Cc1cc(C)n2ccc(C(=O)NC3CCc4nc(C)sc4C3)c2n1 (stereo not drawn) [III-111],30.6 µg/mL,< 10%,< 30%,–,–,–,–
COCc1cc(C(F)F)nc2c(C(=O)NC3(C)CCOc4cc(F)c(F)cc43)ccn12 (stereo not drawn) [III-57],1.5 µg/mL,10 to 20%,> 60%,–,–,–,–
C#Cc1cccc(C(C)(C)NC(=O)c2ccn3c(C)cc(COC)nc23)c1 [III-64],0.5 µg/mL,> 20%,> 60%,–,–,–,–
COCC#Cc1ccc(NC(=O)c2ccn3c(C)cc(C)nc23)cn1 [III-18],0.7 µg/mL,< 10%,30 to 60%,–,–,–,–
Cc1cc(C(F)F)n2ccc(C(=O)NC3CCCc4ccccc43)c2n1 (stereo not drawn) [III-28],0.7 µg/mL,> 20%,> 60%,–,–,–,–
Cc1cc(C)n2ccc(C(=O)NC3CCc4ccc(-c5cocn5)cc43)c2n1 (stereo not drawn) [III-130],0.5 µg/mL,–,> 60%,–,–,–,–
Cc1cc(C)n2ccc(C(=O)NC3CCC4(CCCCO4)CC3)c2n1 (stereo not drawn) [III-113],–,–,–,+++ (Gcase activation greater than 60%),–,19.7 µg/mL,* (less than 10% Gcase activation)
CCCCO[C@H]1C[C@H](NC(=O)c2ccn3c(C)cc(C)nc23)C1 [III-198],13.1 µg/mL,10 to 20%,> 60%,–,–,–,–

SMILES,solubility [1],activation at 0.1 µM [2],activation at 1 µM [2],"Percent Gcase Activation, 1 μM Test Compound [2]",solubility ([1]; in water),Compound Solubility in Water [1],"Percent Gcase Activation, 0.1 μM Test Compound [2]"
CCCCO[C@H]1CC[C@H](NC(=O)c2ccn3c(COC)cc(C4CC4)nc23)CC1 [III-268],–,> 20%,> 60%,–,2.1 µg/mL,–,–
Cc1cc(C)n2ccc(C(=O)NC3Cc4ccc(-c5cscn5)cc4C3)c2n1 (stereo not drawn) [III-192],0.01 µg/mL,> 20%,> 60%,–,–,–,–
C#Cc1ccc(NC(=O)c2ccn3c(C)cc(C)nc23)c(OCCOC)c1 [III-183],0.04 µg/mL,> 20%,> 60%,–,–,–,–
Cc1cc(C)n2ccc(C(=O)Nc3ccc(C)c(-c4ncco4)c3)c2n1 [III-14],–,–,–,+++ (Gcase activation greater than 60%),–,<1.5 µg/mL,*** (greater than 20% Gcase activation)
Cc1cc(Br)n2ccc(C(=O)Nc3ccc(-c4cocn4)cc3)c2n1 [III-41],0.02 µg/mL,< 10%,30 to 60%,–,–,–,–
Cc1cc(C(F)(F)F)n2ccc(C(=O)NC3CCCc4ccccc43)c2n1 (stereo not drawn) [III-253],–,< 10%,30 to 60%,–,0.6 µg/mL,–,–
CCCCO[C@H]1CC[C@H](NC(=O)c2ccn3c(COC)cc(C)nc23)CC1 [III-33],21 µg/mL,10 to 20%,> 60%,–,–,–,–
CCCCCOC1CCCC(NC(=O)c2ccn3c(C)cc(C)nc23)C1 (stereo not drawn) [III-234],–,> 20%,> 60%,–,1.5 µg/mL,–,–
COCCOc1ccc2c(c1)C(NC(=O)c1ccn3c(C)cc(C)nc13)CCO2 (stereo not drawn) [III-170],9.2 µg/mL,< 10%,30 to 60%,–,–,–,–
Cc1cc(C)n2ccc(C(=O)NC3COCc4ccccc43)c2n1 (stereo not drawn) [III-210],–,10 to 20%,> 60%,–,3.3 µg/mL,–,–
Cc1cc(C)n2ccc(C(=O)Nc3ccc(-c4cccs4)nc3)c2n1 [III-8],0.01 µg/mL,> 20%,> 60%,–,–,–,–
COCc1cc(COC)n2ccc(C(=O)NC3(C)CCOc4cc(F)c(F)cc43)c2n1 (stereo not drawn) [III-155],2.1 µg/mL,10 to 20%,> 60%,–,–,–,–
Cc1cc(C)n2ccc(C(=O)NC3c4ccccc4C4CC3C4)c2n1 (stereo not drawn) [III-136],2.7 µg/mL,> 20%,> 60%,–,–,–,–
CCCCCO[C@H]1CC[C@@H](NC(=O)c2ccn3c(C)cc(C)nc23)C1 [III-179],12.3 µg/mL,< 10%,> 60%,–,–,–,–
Cc1cc(C)n2ccc(C(=O)NC3CC=C(CCCO)c4ccccc43)c2n1 (stereo not drawn) [III-144],0.8 µg/mL,10 to 20%,> 60%,–,–,–,–
Cc1cc(C)n2ccc(C(=O)NC3CCC(c4cccs4)CC3)c2n1 (stereo not drawn) [III-188],–,–,–,+++ (Gcase activation greater than 60%),–,1.0 µg/mL,*** (greater than 20% Gcase activation)
CC[C@H](C)O[C@H]1CC[C@H](NC(=O)c2ccn3c(C)cc(C)nc23)CC1 [III-125],11.1 µg/mL,10 to 20%,> 60%,–,–,–,–
Cc1cc(C)n2ccc(C(=O)NC3(C)CCOc4ccccc43)c2n1 (stereo not drawn) [III-181],1.8 µg/mL,> 20%,> 60%,–,–,–,–
Cc1cc(C)n2ccc(C(=O)N[C@H]3CC[C@H](OCC(C)C)CC3)c2n1 [III-288],–,> 20%,> 60%,–,8.7 µg/mL,–,–
Cc1cc(C)n2ccc(C(=O)NC3CCC4(CCCO4)c4ccccc43)c2n1 (stereo not drawn) [III-143],3.3 µg/mL,> 20%,> 60%,–,–,–,–
